Structures can show the parent of a compound that is named as a salt.
Tests used:
wildtype CFTR [1] = biological target: T1, wildtype CFTR (Homo sapiens, UniProt P13569); test: Whole-cell patch-clamp on FRT cells stably expressing wildtype CFTR; conditions: after stepping membrane potential to +80 mV; MalH-ConA 250 nM, GlyH-101 5 μM
CFTR = biological target: T2, CFTR (Homo sapiens, UniProt P13569); test: Reversibility of CFTR chloride current inhibition after washout; format: cell-based; conditions: after 95-100% inhibition; MalH-ConA over six hours
T2 construct: expressed in transfected cells; host or cells: Fischer rat thyroid (FRT) cells
T2 sequence (P13569 whole entry): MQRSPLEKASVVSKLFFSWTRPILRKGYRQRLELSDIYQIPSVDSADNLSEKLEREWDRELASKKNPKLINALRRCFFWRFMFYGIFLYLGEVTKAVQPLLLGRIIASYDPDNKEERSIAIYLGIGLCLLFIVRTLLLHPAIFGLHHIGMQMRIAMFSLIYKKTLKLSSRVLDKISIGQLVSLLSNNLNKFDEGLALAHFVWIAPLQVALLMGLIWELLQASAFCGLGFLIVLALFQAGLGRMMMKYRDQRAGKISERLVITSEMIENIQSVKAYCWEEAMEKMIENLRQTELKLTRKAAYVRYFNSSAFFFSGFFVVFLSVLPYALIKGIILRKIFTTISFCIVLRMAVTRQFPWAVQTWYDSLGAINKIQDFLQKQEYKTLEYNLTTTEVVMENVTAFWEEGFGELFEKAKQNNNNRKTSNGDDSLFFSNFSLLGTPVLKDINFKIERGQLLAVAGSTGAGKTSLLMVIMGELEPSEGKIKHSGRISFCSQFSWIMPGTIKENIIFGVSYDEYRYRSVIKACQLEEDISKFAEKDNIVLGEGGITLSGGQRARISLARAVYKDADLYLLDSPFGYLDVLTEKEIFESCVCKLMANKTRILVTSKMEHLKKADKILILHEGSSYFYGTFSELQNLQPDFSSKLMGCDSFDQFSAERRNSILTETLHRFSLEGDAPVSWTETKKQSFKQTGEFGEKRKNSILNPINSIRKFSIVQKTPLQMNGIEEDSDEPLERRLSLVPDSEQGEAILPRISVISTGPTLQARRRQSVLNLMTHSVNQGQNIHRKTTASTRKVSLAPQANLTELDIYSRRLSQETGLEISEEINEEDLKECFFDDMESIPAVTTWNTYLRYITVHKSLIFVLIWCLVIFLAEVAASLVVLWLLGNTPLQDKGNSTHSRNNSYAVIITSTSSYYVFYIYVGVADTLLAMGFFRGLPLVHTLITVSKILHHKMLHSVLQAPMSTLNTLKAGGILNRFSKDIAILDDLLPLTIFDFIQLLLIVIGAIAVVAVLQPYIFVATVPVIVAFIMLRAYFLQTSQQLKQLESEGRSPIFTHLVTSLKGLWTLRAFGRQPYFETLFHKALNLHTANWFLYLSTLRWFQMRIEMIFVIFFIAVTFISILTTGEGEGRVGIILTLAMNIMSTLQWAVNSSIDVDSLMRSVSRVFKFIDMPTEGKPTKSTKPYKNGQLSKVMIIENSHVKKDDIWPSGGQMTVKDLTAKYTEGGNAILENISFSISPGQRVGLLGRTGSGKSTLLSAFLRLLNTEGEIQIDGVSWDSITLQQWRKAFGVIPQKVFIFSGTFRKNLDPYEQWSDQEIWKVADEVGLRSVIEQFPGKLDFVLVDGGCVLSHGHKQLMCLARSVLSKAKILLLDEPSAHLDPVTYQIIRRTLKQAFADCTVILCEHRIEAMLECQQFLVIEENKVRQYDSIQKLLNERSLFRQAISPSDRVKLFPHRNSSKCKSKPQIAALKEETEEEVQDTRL
Procedure: Chloride current increased slowly with incubation time, with 50% ‘reversal’ at approximately 8 h.

[2] = Water solubility (statement); format: physicochemical
wildtype CFTR [3] = biological target: T1, wildtype CFTR; test: Apical membrane chloride current (short-circuit current) in FRT epithelial cells expressing human wildtype CFTR

T1 sequence (P13569 whole entry): as above

Compound	time constant of current decay (single exponential) (wildtype CFTR [1])	reversal of CFTR inhibition after washout and forskolin re-addition (CFTR)	water solubility [2]	IC50 (wildtype CFTR [3])	effect of mannose on CFTR inhibitory potency (wildtype CFTR [3]; 200 mM mannose)	effect of heat denaturation on CFTR inhibition activity (wildtype CFTR [3]; 100° C. for 5 min)	effect of EDTA on CFTR inhibition potency (wildtype CFTR [3]; EDTA in buffer (chelation of Ca2+ and Mg2+))	effect of excess unconjugated ConA on CFTR inhibition potency (wildtype CFTR [3]; excess ConA (5 μM) added before compound)	effect of acid incubation on capability to inhibit CFTR (wildtype CFTR [3]; incubation at either pH 1.5 or pH 5.2)	CFTR inhibition after pronase treatment (wildtype CFTR [3]; pronase 8 hours, pH 8, 37° C.)
O=C(CNc1ccc2ccccc2c1)NN=Cc1cc(Br)c(O)c(Br)c1O [GlyH-101, N^2-naphthalenyl-[3,5-[dibromo-2,4-dihydroxyphenyl)methylene]glycine hydrazide]	8 to 10 ms									
O=C(NN=Cc1cc(Br)c(O)c(Br)c1)C(Nc1ccc2ccccc2c1)C(=O)NNC(=S)Nc1ccc(C=Cc2ccc(N=C=S)cc2S(=O)(=O)O)c(S(=O)(=O)O)c1 (stereo not shown) [MalH-DIDS, 2-naphthalenylamino-[(3,5-dibromo-4-dihydroxyphenyl)methylene]hydrazide [[[4-[2-(4-isothiocyanato-2-sulfophenypethenyl]-2-sulfophenyl]amino]thioxomethyl]hydrazide-propanedioic acid, disodium salt]		Near-complete and rapid reversal	highly water soluble	1000 nM	did not affect	did not affect	did not affect	did not affect	did not affect	not affected
